What was measured:
Caco-2 cells [1] = assay: Alamar Blue cytotoxicity assay; type: cell-based
Procedure: (§1) Caco-2 cells were grown in T-75 flasks in Dulbecco's modified Eagle's medium (DMEM) supplemented with 10% FBS, 1% non-essential amino acids, 1% pyruvate, 1% L-glutamine, 100 U/ml penicillin and 100 μg/ml streptomycin at 37° C. in an atmosphere with 5% CO2 and in equilibrium with distilled water. The medium was changed every other day, and the cells were subcultured at 80% confluency. Cells were used in the experiments described below.
(§2) Cytotoxicity of liposomes and bio-enhancer solutions was investigated using the Alamar Blue® assay (AbD Serotec, Oxford, UK) and by determination of the release of lactate dehydrogenase (LDH) with a test kit (Sigma-Aldrich, Taufkirchen, Germany). […] The formed NADH in turn reduces a tetrazolium salt to a red-coloured product which can be determined photometrically. […]
In terms of the Alamar Blue® assay, groups of eight wells were incubated with the solutions of the bio-enhancers in five concentrations (1 μM, 10 μM, 100 μM, 1 mM and 10 mM) and the liposomal formulations in three concentrations (0.5 mM, 5 mM and 50 mM total lipid) in KRB for 2, 4, and 8 h at 37° C. […] After 4 h at 37° C., the colour change of the dye was determined at an excitation wavelength of 530 nm and an emission wavelength of 590 nm in a Fluoroskan Ascent® plate reader. […] Cell viability was expressed as follows: […]

rabbits = conditions: cited from earlier work
rats [2] = conditions: cited from earlier work
Caco-2 cells [3] = assay: LDH release cytotoxicity assay; type: cell-based; conditions: free solution, all concentrations (likely inhibition of the enzymatic reaction)
Procedure: as §1, §2
For the LDH release assay, cells were treated similar as described for the Alamar Blue® cytotoxicity assay with little changes. […] The reaction was stopped by the addition of 10 μl 1N HCl and subsequently, the colour change of the dye was measured by a Tecan microplate absorbance reader (Sunrise, Tecan, Grodig, Austria) at a wavelength of 490 nm and a reference wavelength of 700 nm. To eliminate the influence of the liposomes and the bio-enhancers on the absorbance, a blank was measured of the formulations with a concentration equal to the final assay concentration. […]

rats [4] = conditions: rats fed daily around 37.7 mg/kg for two years; cited from earlier work
Caco-2 cells [5] = conditions: cited from earlier work

CCCCCCCCCCCCCCCC[n+]1ccccc1 [CpCl, cetylpyridinium chloride]
Toxicity compared among the investigated enhancers (Caco-2 cells [1]; Caco-2 cells): most toxic
Cytotoxicity (cell viability) (Caco-2 cells [1]; free enhancer in KRB, concentration 1 mM): strong cytotoxicity
LD50 (rabbits): 400 mg/kg
LD50 (rats [2]): 200 mg/kg
LDH release compared to incubation with KRB (Caco-2 cells [3]): lower as the release after incubation with KRB

CCCCCCCCCCCCCCCCCCN [SA, stearylamine]
Side effects (rats [4]): without causing any side effects

C[C@H](CCC(=O)N(C)CC(=O)O)[C@H]1CC[C@H]2[C@@H]3[C@H](O)C[C@@H]4C[C@H](O)CC[C@]4(C)[C@H]3C[C@H](O)[C@]12C [CS, cholylsarcosine]
Cytotoxicity in WST-1 transformation assay (Caco-2 cells [5]): no cytotoxicity

Reference: US20130251783A1, “LIPOSOMES CONTAINING PERMEATION ENHANCERS FOR ORAL DRUG DELIVERY” (Universitat Heidelberg, priority 2011, published 2013)
